# In ChEMBL document CHEMBL3585307, “Cyclic Steroid Glycosides from the Starfish Echinaster luzonicus: Structures and Immunomodulatory Activities” (J Nat Prod, 2015):
# Active and inactive are the calls of the source. No cut-off for these calls is given here.
# How the values were obtained:
# [1] = system: RAW264.7; assay: Stimulation of lysosomal activity in mouse RAW264.7 cells after 24 hrs by acridine orange based/immunomodulatory activity assay; assay type: functional, cell-based
# [2] = system: RAW264.7; assay: Induction of reactive oxygen species generation in mouse RAW264.7 cells at 0.01 uM after 24 hrs by DCF-DA dye-based/immunomodulatory activity assay relative to control; assay type: functional
# [3] = system: RAW264.7; assay: Cytotoxicity against mouse RAW264.7 cells assessed as cell viability at 0.001 to 50 uM after 48 hrs by MTT assay; assay type: cell-based; details: raw264.7, 48 h
# [4] = system: RAW264.7; assay: Stimulation of lysosomal activity in mouse RAW264.7 cells at 0.001 to 1 uM after 24 hrs by acridine orange based/immunomodulatory activity assay; assay type: functional, cell-based
# [5] = system: RAW264.7; assay: Induction of reactive oxygen species generation in mouse RAW264.7 cells at 0.01 to 10 uM after 24 hrs by DCF-DA dye-based/immunomodulatory activity assay; assay type: functional, cell-based
# [6] = system: RAW264.7; assay: Induction of NO production in mouse RAW264.7 cells at 0.1 uM after 24 hrs by FA-OMe fluorescent probe based/immunomodulatory activity assay; assay type: functional
# [7] = system: RAW264.7; assay: Stimulation of lysosomal activity in mouse RAW264.7 cells at 10 uM after 24 hrs by acridine orange based/immunomodulatory activity assay; assay type: functional, cell-based
# [8] = system: RAW264.7; assay: Induction of NO production in mouse RAW264.7 cells at 0.01 uM after 24 hrs by FA-OMe fluorescent probe based/immunomodulatory activity assay; assay type: functional
# [9] = system: RAW264.7; assay: Stimulation of lysosomal activity in mouse RAW264.7 cells at 0.1 uM after 24 hrs by acridine orange based/immunomodulatory activity assay; assay type: functional
# [10] = system: RAW264.7; assay: Stimulation of lysosomal activity in mouse RAW264.7 cells at 0.1 uM after 24 hrs by acridine orange based/immunomodulatory activity assay relative to 1 ug/ml LPS stimulation; assay type: functional, cell-based
# [11] = system: RAW264.7; assay: Induction of NO production in mouse RAW264.7 cells after 24 hrs by FA-OMe fluorescent probe based/immunomodulatory activity assay; assay type: functional, cell-based
Structure (SMILES),Activity [1],fold change (FC) [2],Activity [3],Activity [4],Activity [5],Activity [6],Activity [7],Activity [8],Activity [9],Activity [10],Activity [11]
CC(C)CC(=O)C[C@@H](C)[C@H]1CC[C@H]2C3=C[C@H]4OC[C@H]5O[C@@H](O[C@H]6[C@@H](OC[C@H](O)[C@@H]6O)O[C@H]6[C@H](O[C@H]7CC[C@@](C)([C@@H]4C7)[C@H]3CC[C@]12C)O[C@H](C(=O)O)[C@@H](O)[C@@H]6O)[C@H](O)[C@@H](O)[C@H]5O,Dose-dependent effect,2,Non-toxic,Active,Active,15%,inactive,15%,50%,Active,Dose-dependent effect
CC(C)CC(=O)C[C@@H](C)[C@H]1CC[C@H]2C3=C[C@H]4OC[C@H]5O[C@@H](O[C@H]6[C@@H](OC[C@H](O)[C@@H]6O)O[C@H]6[C@H](O[C@H]7CC[C@@](C)([C@@H]4C7)[C@H]3CC[C@]12C)O[C@H](C(=O)O)[C@@H](O)[C@@H]6O)[C@H](O)[C@@H](O)[C@@H]5O,–,–,Non-toxic,–,inactive,–,–,–,–,–,inactive
